Patent US12168037B2, “Intracellular IL-1 alpha peptide methods and compositions” (CEDARS-SINAI MEDICAL CENTER, priority 2018, dated 2024)
Ends that are not written are not given here. Peptide text beside a SMILES is read from it. * marks the point of attachment. Cbz = O=C(OCc1ccccc1)*

Columns and labels:
S87A-IL-1α protein = S87A-IL-1α protein stability in stably transfected 293 cells (western blot); type: cell-based, human; conditions: 293 cells stably expressing S87A-IL-1α, MG132 5 hours vs DMSO
Experimental: FIGS. 1A-1C depict in accordance with various embodiments of the invention, that serine phosphorylation is required for IL-1α protein stability. FIG. 1A) Relative expression of IL-1α mRNA by qPCR. FIG. 1B) Western Blot of IL-1α protein level in cell lysates. FIG. 1C) Western blot of IL-1α in cell lysates of cells treated with DMSO or MG132 for 5 hours.
Human IL-1α is phosphorylated at the serine 87 (S87) residue (mouse equivalent to S90) of the N-terminal pro-piece by protein kinase A (PKA). […] IL-1α phosphorylation is required for its membrane localization. A mutant IL-1α plasmid cDNA was made for studying the role of IL-1α subcellular localization: the Serine at 87 was exchanged with Alanine (S87A) using the QuikChange Site-Directed Mutagenesis kit, Cat #200518 and human pCMV-IL-1α-flag plasmid DNA (Sino Biological Inc. Cat #HG10128-M-F). Primers were designed by the QuikChange Primer Design software program.
Wild-type (WT)-IL-1α or mutant S87A-IL-1α plasmid was transfected into 293 cells and stable expressing cells lines were made. These cells express similar levels of IL-1α mRNA (FIG. 1A). IL-1α protein was detected only in WT-IL-1α transfected cells but not mutant S87A-IL-1α transfected cells (FIG. 1B). […] Based on this finding, a pseudosubstrate peptide was made to inhibit IL-1α phosphorylation, which may provide a more convenient way to control IL-1α during inflammation. […]

[1] = Membrane lipid strip binding (ECL detection); conditions: membrane lipid strips incubated with peptide (5 μg) or recombinant protein
Experimental: (§1) FIGS. 12A-12F depict in accordance with various embodiments of the invention, that the iIL-1α-peptide reduces cutaneous melanoma tumor. FIG. 12A-12B) Membrane lipid strips were incubated with (5 μg) SPDIA or Control peptide and detected by ECL. FIG. 12C) B16 or YUMM1.7 cells were treated with SPDIA or Control peptide (40 μg/ml) for 5 h, and pAkt1 and Akt1 in cell lysate were determined by WB. FIG. 12D) Experimental scheme. FIG. 12E) tumor pictures. FIG. 12F) Quantification of tumor volume, ** p<0.05. and Quantification of tumor mass, ** p<0.05. n=5.
FIGS. 14A-14C show intracellular IL-1α reduced Akt1 activation. FIG. 14A) pAkt1 and total Akt1 in cell lysate was determined by WB. FIG. 14B) Membrane lipid strip was incubated with recombinant human proIL-1α. IL-1α was detected by ECL system. FIG. 14C) PIP3 and Na, K-ATPase levels in plasma membrane fraction were determined by WB.
Intracellular IL-1α reduced Akt1 activation.
IL-1α pro-piece reduces melanoma tumor progression. To investigate the suppressive effect of intracellular proIL-1α in melanoma tumor progression, we designed a short Peptide Derived from IL-1A pro-piece (SPDIA) “GKVLKKRRLSL” (SEQ ID NO:1).

melanoma cells = experiment: Cytotoxicity to melanoma cells; type: cell-based, mouse; conditions: 40 μg/ml, 5 h
Experimental: We label the SPDIA peptide with 680XL tag (680XL-SPDIA) using the VivoTag 680XL Protein Labeling Kit (PerkinElmer) for determine half-life and membrane penetrating efficiency of SPDIA peptide. B16 or YUMM1.7 melanoma cells are treated with 680XL-SPDIA peptide at various doses (10-100 μg/ml) and durations (1-10 h), and live images for intracellular expression and half-life of the SPDIA peptide are detected by fluorescence microscopy (Keyence, BZ-X). Further, the cellular cytotoxicity to the B16 and YUMM1.7 melanoma cells are measured by LDH cytotoxicity assay kit.
While we do […] expect to observe any cytotoxicity in vitro, at cells at lower concentrations of SPDIA peptide for longer durations (24, 48 h) and assess cell death.

IL-1α protein = IL-1α protein level in LPS-stimulated peritoneal macrophages (western blot); type: cell-based; conditions: peritoneal macrophages pretreated with peptide 1 hour, stimulated with LPS (3 hours), compared to LPS alone
Experimental: FIG. 2 depicts in accordance with various embodiments of the invention, that TAT-IL-1α peptide diminished IL-1α protein level. Peritoneal macrophages were pretreated with TAT-IL-1α or TAT-control peptides for 1 hour and stimulated with LPS (3 hours). The IL-1α protein level in cell lysate was detected by Western Blot. GAPDH was measured as a loading control.
The inventors investigated whether TAT-IL-1α peptide triggers IL-1α protein degradation by reducing its serine phosphorylation. Peritoneal macrophages were pretreated with TAT-IL-1α or TAT-Control peptides for 1 hour, stimulated with LPS, and the IL-1α protein level in whole cell lysate was detected by western blot (WB) (FIG. 2). The IL-1α protein level was decreased in TAT-IL-1α treated cells.

hexokinase 2 (HK-2) = experiment: HK-2 mitochondrial/cytosolic fraction level in melanoma cells by western blot; type: cell-based, mouse; conditions: B16 or Yumm 1.7 cells, 40 μg/ml, 5 hours, vs TAT-Control
Experimental: B16 cells isolated from tumors from WT mice were treated with iIL-1α-mimic peptide (iIL-1α-peptide) (40 μg/ml) or PBS for 5 hours. […] FIG. 10B) HK-2 and pAkt1 in cytosolic and mitochondrial fraction were determined by WB. COX-IV and GAPDH was used as a loading controls.
B16 cells were isolated from WT mice and cultured in-vitro. The cells were treated with the iIL-1α-mimic peptide (iIL-1α peptide) or PBS for 5 hours (FIG. 10).
B16 or Yumm1.7 melanoma cells were treated with PBS or iIL-1α-peptide (40 μg/ml) for 5 hours, and HK-2 levels and Akt1 activation in the mitochondrial and cytosolic fraction were determined by western blot.

B16 melanoma cells = experiment: B16 melanoma lung metastasis/colonization model (tail vein injection); type: in vivo, mouse; conditions: vs TAT-Control peptide; for melanoma (lung) metastasis: B16 cells i.v. in female WT mice, peptide i.v. five days later, lungs harvested five days post treatment
Description: FIGS. 4A-4C depict in accordance with various embodiments of the invention, that TAT-IL-1α peptide reduced lung metastasis. FIG. 4A) Experimental Schematic (top), metastatic lungs (bottom images). FIG. 4B) Quantification of tumor number in TAT-Control and TAT-IL-1α. FIG. 4C) Melanin content of the metastatic lungs in TAT-Control and TAT-IL-1α.
FIGS. 11A-11C depict in accordance with various embodiments of the invention, that the iIL-1α-peptide reduces melanoma colonization in the lung. FIG. 11A) Experimental scheme and representative lung pictures. FIG. 11B) Quantification of tumor number, **p<0.01. FIG. 11C) Quantification of melanin content, *p<0.05. n=4.
The B16 (also referred herein as “B16F10”) mouse melanoma metastasis model is widely accepted, as B16 cells injected via tail vein reliably colonize the lungs, with easily identifiable tumors after 7-14 days. While the use of a genetic melanoma model may be ideal, it requires the use of immunodeficient mice or the complicated and expensive humanized mice. While the B16 model may have its known caveats, it has repeatedly given very useful novel mechanistic clues that can be further tested in more relevant models, such as genetically engineered mice. In addition to the B16 model, a mouse melanoma cell line with human genetic drivers that are more relevant to human melanoma formation and progression were also used. To this effect, a non-immunogenic cell line (YUMM1.7) was used. In the YUMM1.7 cells, nearly 50% of human melanomas harbor a gain of function in the Braf^V600E Cdkn2a−/− Pten−/− mutations and they form reliable lung tumors following tail vein injection (5×10^5, in 3 weeks). Other common mutations in human melanoma include CDKN2A (familial melanoma gene), inactivation of tumor suppressors including INK4A, ARF, p53, and PTEN, as well as mutations in proto-oncogenes such as H-RAS, N-RAS, and K-RAS.
The peptides were subsequently tested in vivo. B16 melanoma cells were intravenously (i.v.) injected in the tail vein of female WT mice. Five days later, TAT-IL-1α or TAT-Control peptide was injected in the tail vein (i.v.). Five days post treatment, lungs were harvested and examined for metastasis. […] The tumor number and melanin content were diminished in the TAT-IL-1α treatment group compared to TAT-Control peptide treatment. (FIGS. 4B and 4C).
The mouse models used were C57Bl/6 WT or Il1α−/− mice injected with B16 cells (2×10^5 tail vein), (3×10^5 subcutaneous) or C57Bl/6 WT mice injected with YUMM1.7 cells (5×10^5 subcutaneous). The IL-1α, pAkt1 and HK-2 levels were determined by WB. The glycolytic rate in B16 cells was measured by Seahorse.
The iIL-1α-peptide reduces tumor burden in vivo. The protective role of the iIL-1α-peptide against melanoma colonization was investigated. […] The mice were analyzed 5 days later.

Akt1 = target: T1, Akt1 (Mus musculus, UniProt P31750); experiment: Akt1 activation (pAkt1) in melanoma cells by western blot; type: cell-based; conditions: B16 or Yumm 1.7 murine melanoma cells, TAT-IL-1α 40 μg/ml, 5 hours, vs TAT-Control peptide
T1 construct: endogenous in cells
T1 sequence (P31750 whole entry): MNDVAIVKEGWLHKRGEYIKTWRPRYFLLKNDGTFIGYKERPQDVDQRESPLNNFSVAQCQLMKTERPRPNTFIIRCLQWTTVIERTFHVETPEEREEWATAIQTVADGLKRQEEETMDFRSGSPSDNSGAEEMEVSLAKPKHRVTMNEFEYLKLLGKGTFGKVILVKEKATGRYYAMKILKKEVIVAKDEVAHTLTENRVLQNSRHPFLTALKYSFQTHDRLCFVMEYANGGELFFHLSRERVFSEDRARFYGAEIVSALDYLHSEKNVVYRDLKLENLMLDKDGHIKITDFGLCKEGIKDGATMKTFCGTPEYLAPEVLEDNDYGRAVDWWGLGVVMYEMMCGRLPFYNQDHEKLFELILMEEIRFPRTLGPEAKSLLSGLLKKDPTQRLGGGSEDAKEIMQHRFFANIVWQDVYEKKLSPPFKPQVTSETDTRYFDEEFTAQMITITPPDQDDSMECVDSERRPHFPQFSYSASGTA
Experimental: FIG. 3 depicts in accordance with various embodiments of the invention, that TAT-IL-1α peptide diminished Akt1 activation and increased HK-2 mitochondrial dissociation. B16 or Yumm 1.7 murine melanoma cells were treated with TAT-IL-1α (40 μg/ml) or TAT-Control peptide for 5 hours. HK-2 level and pAkt1 activation in the cytosolic and mitochondrial fraction were detected by Western Blot. GAPDH was measured as a loading control.
FIGS. 10A-10C depict in accordance with various embodiments of the invention, the iIL-1α-peptide reduces Akt1 activation and glycolysis in melanoma cells. […] FIG. 10B) HK-2 and pAkt1 in cytosolic and mitochondrial fraction were determined by WB. […] FIG. 10C) Extracellular acidification rate (ECAR) was measured by Seahorse and compared over time in PBS and iIL-1α-peptide treated mice.
as §1, with “FIG. 12D) Experimental scheme. FIG. 12E) tumor pictures.” left out, “n=5. […]” for “n=5.”

[2] = B16 i.v. model, peptide i.v. day 5

CC(C)C[C@@H](C=O)NC(=O)[C@H](CC(C)C)NC(=O)[C@H](CC(C)C)NC(=O)OCc1ccccc1 [MG132] (Cbz-Leu-Leu-Leu-aldehyde)
S87A-IL-1α protein in cell lysate (S87A-IL-1α protein): clearly detected

GKVLKKAALSL [control peptide, SPDIA with arginine residues replaced by alanine, reference compound]
interaction with phosphoinositides on membrane lipid strip [1]: fails to bind with PIP and PIP2

GKVLKKRRLSL [SPDIA, GKVLKKRRLSL]
cytotoxicity (melanoma cells): without inducing cytotoxicity

YGRKKRRQRRRLAKARLAL [TAT-Control peptide, control peptide for TAT-IL-1α peptide, reference compound]
IL-1α protein level in whole cell lysate (IL-1α protein): slightly decreased

YGRKKRRQRRRLKKRRLSL [TAT-IL-1α peptide]
HK-2 mitochondrial dissociation (hexokinase 2 (HK-2)): increased | HK-2 mitochondrial translocation (hexokinase 2 (HK-2)): diminished | IL-1α protein level in whole cell lysate (IL-1α protein): diminished | IL-1α protein level in whole cell lysate (IL-1α protein; listed as TAT-IL-1α): decreased | melanoma (lung) metastasis (B16 melanoma cells): reduced | melanoma (lung) metastasis (B16 melanoma cells; listed as TAT-IL-1α): significantly reduced | melanin content of the metastatic lungs (B16 melanoma cells; [2]): diminished | tumor number (metastatic lungs) (B16 melanoma cells; [2]): diminished | Akt1 activation (pAkt1) (Akt1): diminished | Akt1 activation (pAkt1) (Akt1; listed as TAT-IL-1α): significantly inhibited

B1: proIL-1α: recombinant human proIL-1α incubated with membrane lipid strip (protein, UniProt P01583 1-271, looked up)
pro-form: MAKVPDMFEDLKNCYSENEEDSSSIDHLSLNQKSFYHVSYGPLHEGCMDQSVSLSISETSKTSKLTFKESMVVVATNGKVLKKRRLSLSQSITDDDLEAIANDSEEEIIKPRSAPFSFLSNVKYNFMRIIKYEFILNDALNQSIIRANDQYLTAAALHNLDEAVKFDMGAYKSSKDDAKITVILRISKTQLYVTAQDEDQPVLLKEMPEIPKTITGSETNLLFFWETHGTKNYFTSVAHPNLFIATKQDYWVCLAGGPPSITDFQILENQA
modifications: pro-form
notes: recombinant human proIL-1α incubated with membrane lipid strip
interaction with phosphoinositides on membrane lipid strip [1]: interaction with phosphoinositides such as PI(4)P (PIP), PI(4,5)P2 (PIP2) and PI(3,4,5)P3 (PIP3)
